In patent publication US10745382B2 (BRISTOL-MYERS SQUIBB COMPANY, priority 2015, dated 2020):
Where two headings read alike, the source gives them in different places. Values belong to the compound of their own block, whether it stands above or below them.

Biological target: T1, PD-1/PD-L1 (Homo sapiens, UniProt Q9NZQ7)
T1 construct: made in house; host or cells: HEK293T
Assay: PD-1/PD-L1 Homogenous Time-Resolved Fluorescence (HTRF) binding assay
Details: PD-L1-His 10 nM, PD-1-Ig 20 nM, read-out: Range or IC50
Experimental: The ability of the compounds of formula (I) to bind to PD-L1 was investigated using a PD-1/PD-L1 Homogenous Time-Resolved Fluorescence (HTRF) binding assay.
Homogenous Time-Resolved Fluorescence (HTRF) Binding Assay.
All binding studies were performed in an HTRF assay buffer consisting of dPBS supplemented with 0.1% […] bovine serum albumin and 0.05% (v/v) Tween-20. […] HTRF detection was achieved using europium crypate-labeled anti-Ig (1 nM final) and allophycocyanin (APC) labeled anti-His (20 nM final). Antibodies were diluted in HTRF detection buffer and 5 μl was dispensed on top of the binding reaction. […] Additional binding assays were established between the human proteins PD-1-Ig/PD-L2-His (20 & 5 nM, respectively) and CD80-His/PD-L1-Ig (100 & 10 nM, respectively). […]

T1 sequence (Q9NZQ7 with tags, fused parts or gaps): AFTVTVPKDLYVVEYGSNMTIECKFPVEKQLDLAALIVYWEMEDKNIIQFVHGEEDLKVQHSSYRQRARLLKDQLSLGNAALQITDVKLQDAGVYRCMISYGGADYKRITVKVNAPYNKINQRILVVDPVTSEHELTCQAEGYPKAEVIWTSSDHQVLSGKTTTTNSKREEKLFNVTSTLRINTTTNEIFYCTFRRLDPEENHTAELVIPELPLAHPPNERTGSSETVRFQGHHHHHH

Compound: Cc1c(COc2cc(OCc3cncc(C#N)c3)c(CN[C@H](CO)C(=O)O)cc2Cl)cccc1-c1cccc(OCC(=O)N2CC[C@H](O)C2)c1 [Example 1003, (R)-2-((5-chloro-2-((5-cyanopyridin-3-yl)methoxy)-4-((3′-(2-((S)-3-hydroxypyrrolidin-1-yl)-2-oxoethoxy)-2-methyl-[1,1′-biphenyl]-3-yl)methoxy)benzyl)amino)-3-hydroxypropanoic Acid]
IC50 (value given as range class): 10 to 100 nM

Compound: Cc1c(COc2cc(OCc3cncc(C#N)c3)c(CN[C@@](C)(CO)C(=O)O)cc2Cl)cccc1-c1cccc(OCC(=O)N2CC[C@H](O)C2)c1 [Example 1004, (S)-2-((5-chloro-2-((5-cyanopyridin-3-yl)methoxy)-4-((3′-(2-((S)-3-hydroxypyrrolidin-1-yl)-2-oxoethoxy)-2-methyl-[1,1′-biphenyl]-3-yl)methoxy)benzyl)amino)-3-hydroxy-2-methylpropanoic Acid]
IC50 (value given as range class): 10 to 100 nM

Compound: Cc1c(COc2cc(OCc3cncc(C#N)c3)c(CN3CCCC[C@H]3C(=O)O)cc2Cl)cccc1-c1cccc(OCC(=O)N2CC[C@H](O)C2)c1 [Example 1005, (S)-1-(5-chloro-2-((5-cyanopyridin-3-yl)methoxy)-4-((3′-(2-((S)-3-hydroxypyrrolidin-1-yl)-2-oxoethoxy)-2-methyl-[1,1′-biphenyl]-3-yl)methoxy)benzyl)piperidine-2-carboxylic Acid]
IC50 (numeric IC50): 37 nM

Compound: Cc1c(COc2cc(OCc3cncc(C#N)c3)c(CN[C@H](CO)C(=O)O)cc2Cl)cccc1-c1cccc(OCC(=O)N2CC[C@@H](O)C2)c1 [Example 1006, (R)-2-((5-chloro-2-((5-cyanopyridin-3-yl)methoxy)-4-((3′-(2-((R)-3-hydroxypyrrolidin-1-yl)-2-oxoethoxy)-2-methyl-[1,1′-biphenyl]-3-yl)methoxy)benzyl)amino)-3-hydroxypropanoic Acid]
IC50 (value given as range class): 10 to 100 nM

Compound: Cc1c(COc2cc(OCc3cncc(C#N)c3)c(CN3CCCC[C@H]3C(=O)O)cc2Cl)cccc1-c1cccc(OCC(=O)N2CC[C@@H](O)C2)c1 [Example 1007, (S)-1-(5-chloro-2-((5-cyanopyridin-3-yl)methoxy)-4-((3′-(2-((R)-3-hydroxypyrrolidin-1-yl)-2-oxoethoxy)-2-methyl-[1,1′-biphenyl]-3-yl)methoxy)benzyl)piperidine-2-carboxylic Acid]
IC50 (numeric IC50): 26 nM

Compound: Cc1c(COc2cc(OCc3cncc(C#N)c3)c(CN3C[C@@H](O)C[C@H]3C(=O)O)cc2Cl)cccc1-c1cccc(OCC(=O)N2CC[C@@H](O)C2)c1 [Example 1008, (2S,4S)-1-(5-chloro-2-((5-cyanopyridin-3-yl)methoxy)-4-((3′-(2-((R)-3-hydroxypyrrolidin-1-yl)-2-oxoethoxy)-2-methyl-[1,1′-biphenyl]-3-yl)methoxy)benzyl)-4-hydroxypyrrolidine-2-carboxylic Acid]
IC50 (value given as range class): 10 to 100 nM

Compound: Cc1c(COc2cc(OCc3cncc(C#N)c3)c(CN[C@@](C)(CO)C(=O)O)cc2Cl)cccc1-c1cccc(OCCC(=O)N2CC[C@@H](O)C2)c1 [Example 1010, (S)-2-((5-chloro-2-((5-cyanopyridin-3-yl)methoxy)-4-((3′-(3-((R)-3-hydroxypyrrolidin-1-yl)-3-oxopropoxy)-2-methyl-[1,1′-biphenyl]-3-yl)methoxy)benzyl)amino)-3-hydroxy-2-methylpropanoic Acid]
IC50 (value given as range class): 0.21 to 10 nM

Compound: Cc1c(COc2cc(OCc3cncc(C#N)c3)c(CN3CC[C@H]3C(=O)O)cc2Cl)cccc1-c1cccc(OCCC(=O)N2CC[C@@H](O)C2)c1 [Example 1012, (S)-1-(5-chloro-2-((5-cyanopyridin-3-yl)methoxy)-4-((3′-(3-((R)-3-hydroxypyrrolidin-1-yl)-3-oxopropoxy)-2-methyl-[1,1′-biphenyl]-3-yl)methoxy)benzyl)azetidine-2-carboxylic Acid]
IC50 (value given as range class): 0.21 to 10 nM

Compound: CC(=O)NCCNCc1cc(Cl)c(OCc2cccc(-c3cccc(OCCCN4CC[C@@H](O)C4)c3)c2C)cc1OCc1cncc(C#N)c1 [Example 1015, (R)—N-(2-((5-chloro-2-((5-cyanopyridin-3-yl)methoxy)-4-((3′-(3-(3-hydroxypyrrolidin-1-yl)propoxy)-2-methyl-[1,1′-biphenyl]-3-yl)methoxy)benzyl)amino)ethyl)acetamide]
IC50 (value given as range class): 0.21 to 10 nM

Compound: Cc1c(COc2cc(OCc3cncc(C#N)c3)c(CN[C@@](C)(CO)C(=O)O)cc2Cl)cccc1-c1cccc(OCCCN2CC[C@@H](O)C2)c1 [Example 1017, (S)-2-((5-chloro-2-((5-cyanopyridin-3-yl)methoxy)-4-((3′-(3-((R)-3-hydroxypyrrolidin-1-yl)propoxy)-2-methyl-[1,1′-biphenyl]-3-yl)methoxy)benzyl)amino)-3-hydroxy-2-methylpropanoic Acid]
IC50 (value given as range class): 0.21 to 10 nM

Compound: Cc1c(COc2cc(OCc3cncc(C#N)c3)c(CN3CCCC[C@H]3C(=O)O)cc2Cl)cccc1-c1cccc(OCCCN2CCC[C@H](O)C2)c1 [Example 1019, (S)-1-(5-chloro-2-((5-cyanopyridin-3-yl)methoxy)-4-((3′-(3-((S)-3-hydroxypiperidin-1-yl)propoxy)-2-methyl-[1,1′-biphenyl]-3-yl)methoxy)benzyl)piperidine-2-carboxylic Acid]
IC50 (value given as range class): 0.21 to 10 nM

Compound: C=CC(=O)NCCCOc1cccc(-c2cccc(COc3cc(OCc4cncc(C#N)c4)c(CN[C@H](CO)C(=O)O)cc3Cl)c2C)c1 [Example 1021, (R)-2-((4-((3′-(3-acrylamidopropoxy)-2-methyl-[1,1′-biphenyl]-3-yl)methoxy)-5-chloro-2-((5-cyanopyridin-3-yl)methoxy)benzyl)amino)-3-hydroxypropanoic Acid]
IC50 (value given as range class): 0.21 to 10 nM

Results, then the compound that gave them:

IC50 (value given as range class): 10 to 100 nM
Compound: Cc1c(COc2cc(OCc3cncc(C#N)c3)c(CN[C@@](C)(CO)C(=O)O)cc2Cl)cccc1-c1cccc(OCCN2CCOCC2)c1 [Example 1002, (S)-2-((5-chloro-2-((5-cyanopyridin-3-yl)methoxy)-4-((2-methyl-3′-(2-morpholinoethoxy)-[1,1′-biphenyl]-3-yl)methoxy)benzyl)amino)-3-hydroxy-2-methylpropanoic Acid]

IC50 (value given as range class): 0.21 to 10 nM
Compound: Cc1c(COc2cc(OCc3cncc(C#N)c3)c(CN[C@H](CO)C(=O)O)cc2Cl)cccc1-c1cccc(OCCC(=O)N2CC[C@@H](O)C2)c1 [Example 1009, (R)-2-((5-chloro-2-((5-cyanopyridin-3-yl)methoxy)-4-((3′-(3-((R)-3-hydroxypyrrolidin-1-yl)-3-oxopropoxy)-2-methyl-[1,1′-biphenyl]-3-yl)methoxy)benzyl)amino)-3-hydroxypropanoic Acid]

IC50 (value given as range class): 100 to 2000 nM
Compound: Cc1c(COc2cc(OCc3cncc(C#N)c3)c(CN3CCCC[C@H]3C(=O)O)cc2Cl)cccc1-c1cccc(OCCC(=O)N2CC[C@@H](O)C2)c1 [Example 1011, (S)-1-(5-chloro-2-((5-cyanopyridin-3-yl)methoxy)-4-((3′-(3-((R)-3-hydroxypyrrolidin-1-yl)-3-oxopropoxy)-2-methyl-[1,1′-biphenyl]-3-yl)methoxy)benzyl)piperidine-2-carboxylic Acid]

IC50 (value given as range class): 0.21 to 10 nM
Compound: Cc1c(COc2cc(OCc3cncc(C#N)c3)c(CN3CCCC[C@H]3C(=O)O)cc2Cl)cccc1-c1cccc(OCCCN2CC[C@@H](O)C2)c1 [Example 1013, (S)-1-(5-chloro-2-((5-cyanopyridin-3-yl)methoxy)-4-((3′-(3-((R)-3-hydroxypyrrolidin-1-yl)propoxy)-2-methyl-[1,1′-biphenyl]-3-yl)methoxy)benzyl)piperidine-2-carboxylic Acid]

IC50 (value given as range class): 0.21 to 10 nM
Compound: Cc1c(COc2cc(OCc3cncc(C#N)c3)c(CNC[C@@H](O)CC(=O)O)cc2Cl)cccc1-c1cccc(OCCCN2CC[C@@H](O)C2)c1 [Example 1014, (S)-4-((5-chloro-2-((5-cyanopyridin-3-yl)methoxy)-4-((3′-(3-((R)-3-hydroxypyrrolidin-1-yl)propoxy)-2-methyl-[1,1′-biphenyl]-3-yl)methoxy)benzyl)amino)-3-hydroxybutanoic Acid]

IC50 (value given as range class): 0.21 to 10 nM
Compound: Cc1c(COc2cc(OCc3cncc(C#N)c3)c(CN[C@H](CO)C(=O)O)cc2Cl)cccc1-c1cccc(OCCCN2CC[C@@H](O)C2)c1 [Example 1016, (R)-2-((5-chloro-2-((5-cyanopyridin-3-yl)methoxy)-4-((3′-(3-((R)-3-hydroxypyrrolidin-1-yl)propoxy)-2-methyl-[1,1′-biphenyl]-3-yl)methoxy)benzyl)amino)-3-hydroxypropanoic Acid]

IC50 (value given as range class): 0.21 to 10 nM
Compound: Cc1c(COc2cc(OCc3cncc(C#N)c3)c(CN3CCCC[C@H]3C(=O)O)cc2Cl)cccc1-c1cccc(OCCCN2CCC[C@@H](O)C2)c1 [Example 1018, (S)-1-(5-chloro-2-((5-cyanopyridin-3-yl)methoxy)-4-((3′-(3-((R)-3-hydroxypiperidin-1-yl)propoxy)-2-methyl-[1,1′-biphenyl]-3-yl)methoxy)benzyl)piperidine-2-carboxylic Acid]

IC50 (value given as range class): 10 to 100 nM
Compound: C=CC(=O)NCCCOc1cccc(-c2cccc(COc3cc(OCc4cncc(C#N)c4)c(CN4CCCC[C@H]4C(=O)O)cc3Cl)c2C)c1 [Example 1020, (S)-1-(4-((3′-(3-acrylamidopropoxy)-2-methyl-[1,1′-biphenyl]-3-yl)methoxy)-5-chloro-2-((5-cyanopyridin-3-yl)methoxy)benzyl)piperidine-2-carboxylic Acid]

IC50 (value given as range class): 0.21 to 10 nM
Compound: Cc1c(COc2cc(OCc3cncc(S(C)(=O)=O)c3)c(CN3CCCC[C@H]3C(=O)O)cc2Cl)cccc1-c1cccc(OCCCN2CC[C@@H](O)C2)c1 [Example 1022, (S)-1-(5-chloro-4-((3′-(3-((R)-3-hydroxypyrrolidin-1-yl)propoxy)-2-methyl-[1,1′-biphenyl]-3-yl)methoxy)-2-((5-(methylsulfonyl)pyridin-3-yl)methoxy)benzyl)piperidine-2-carboxylic Acid]
